For six compounds, EC50 results are on record in paper PMC6315173, “Characterization of the Apelin/Elabela Receptors (APLNR) in Chickens, Turtles, and Zebrafish: Identification of a Novel Apelin-Specific Receptor in Teleosts” (Frontiers in Endocrinology, 2018).

Where two headings read alike, the source gives them in different places. Positions of bridges follow the written chain, without caps; N, C: chain ends. Residues, ends and D or L forms follow the SMILES beside them. No end group written: not given here.

Assay [1] concerns the target T1, zebrafish APLNR2b (zfAPLNR2b) (Danio rerio, UniProt A0T2N3).
T1 construct: the open reading frame (ORF) of each APLNR was amplified from the animal; expressed in transfected cells; host or cells: HEK293
T1 sequence (A0T2N3 1-359): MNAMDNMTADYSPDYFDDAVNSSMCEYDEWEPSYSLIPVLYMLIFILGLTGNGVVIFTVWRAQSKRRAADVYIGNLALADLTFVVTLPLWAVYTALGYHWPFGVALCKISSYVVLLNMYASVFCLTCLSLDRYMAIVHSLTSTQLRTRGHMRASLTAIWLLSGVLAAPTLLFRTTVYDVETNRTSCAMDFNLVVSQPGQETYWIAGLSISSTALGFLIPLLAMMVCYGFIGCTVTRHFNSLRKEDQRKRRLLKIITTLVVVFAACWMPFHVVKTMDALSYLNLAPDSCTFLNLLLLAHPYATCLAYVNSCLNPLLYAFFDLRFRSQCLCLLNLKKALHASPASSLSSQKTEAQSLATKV
Put plainly: pGL3-CRE-luciferase reporter assay, HEK293 cells expressing zebrafish APLNR2b. It counts as cell-based. As to the method: (§1) In brief, HEK293 cells were cultured on a six-well plate and grown for 24 h before transfection. The cells were then transfected with a mixture containing 700 ng pGL3-CRE-Luciferase reporter construct (or pGL4-SRE-Luciferase reporter construct), 200 ng of receptor expression plasmid [or empty pcDNA3.1(+) vector as a negative control], and 2 μl jetPRIME (Polyplus Transfection, Illkirch, France) in 200 μl buffer. Twenty-four hour later, HEK293 cells were sub-cultured into a 96-well plate at 37°C for an additional 24 h before treatment. After removal of medium from the 96-well plate, the cells were treated with 100 μl peptide-containing medium (or peptide-free medium) for 6 h in the presence or absence of forskolin (5 μM). Finally, HEK293 cells were lysed with 1 × passive lysis buffer for luciferase assay (Promega, Madison, WI, USA) and the luciferase activity of the cell lysate was measured by a Multimode microplate Reader (TriStar LB 941, EG&G Berthold, Germany) according to the manufacturer's instruction.
(§2) The luciferase activity in each treatment group was expressed as the relative fold changes as compared with their respective control groups. The data were analyzed by non-linear regression followed by one-way ANOVA using GraphPad Prism 5 (GraphPad, San Diego, CA, USA). To validate the results, all experiments were repeated at least twice.
(In general: In a reporter assay the amount or activity of a reporter protein is the signal.)

Assay [2] addresses T2, zebrafish APLNR2a (zfAPLNR2a) (Danio rerio, UniProt Q7SZP9).
T2 construct: the open reading frame (ORF) of each APLNR was amplified from the animal; expressed in transfected cells; host or cells: HEK293
T2 sequence (Q7SZP9 1-362): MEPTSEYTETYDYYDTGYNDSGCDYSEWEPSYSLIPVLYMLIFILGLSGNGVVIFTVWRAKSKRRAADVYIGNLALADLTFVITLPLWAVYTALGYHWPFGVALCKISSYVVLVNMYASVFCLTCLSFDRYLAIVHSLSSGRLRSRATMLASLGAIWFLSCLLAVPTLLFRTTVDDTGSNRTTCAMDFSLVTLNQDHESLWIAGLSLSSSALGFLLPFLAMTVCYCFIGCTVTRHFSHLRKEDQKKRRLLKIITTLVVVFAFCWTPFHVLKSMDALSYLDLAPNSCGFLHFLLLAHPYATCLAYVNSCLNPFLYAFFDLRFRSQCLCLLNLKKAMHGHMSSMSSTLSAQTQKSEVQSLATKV
Nature of the assay: pGL3-CRE-luciferase reporter assay, HEK293 cells expressing zebrafish APLNR2a. In kind it is cell-based. As to the method: as §1, §2

For a further assay, the target named is T3, human APLNR (hAPLNR1) (Homo sapiens, UniProt P35414).
T3 construct: human APLNR ORF was also amplified by PCR and cloned into pcDNA3.1 (+) expression vector; expressed in transfected cells; host or cells: HEK293
T3 sequence (P35414 1-380): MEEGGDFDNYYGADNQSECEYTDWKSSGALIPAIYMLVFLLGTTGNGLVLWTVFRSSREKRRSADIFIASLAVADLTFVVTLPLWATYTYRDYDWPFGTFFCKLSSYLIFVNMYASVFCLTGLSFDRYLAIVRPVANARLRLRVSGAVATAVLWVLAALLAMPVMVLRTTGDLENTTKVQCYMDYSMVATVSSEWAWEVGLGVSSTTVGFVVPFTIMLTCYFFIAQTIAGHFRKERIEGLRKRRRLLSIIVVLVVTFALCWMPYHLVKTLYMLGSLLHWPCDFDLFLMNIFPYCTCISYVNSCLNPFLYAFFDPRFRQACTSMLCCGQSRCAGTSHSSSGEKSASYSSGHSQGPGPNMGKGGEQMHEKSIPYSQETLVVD
Put plainly: pGL3-CRE-luciferase reporter assay, HEK293 cells expressing human APLNR. In kind it is cell-based. Particulars: SEM; read-out: EC50 (nM) hAPLNR. As to the method: In brief, HEK293 cells were cultured on a six-well plate and grown for 24 h before transfection. The cells were then transfected with a mixture containing 700 ng pGL3-CRE-Luciferase reporter construct (or pGL4-SRE-Luciferase reporter construct), 200 ng of receptor expression plasmid [or empty pcDNA3.1(+) vector as a negative control], and 2 μl jetPRIME (Polyplus Transfection, Illkirch, France) in 200 μl buffer. Twenty-four hour later, HEK293 cells were sub-cultured into a 96-well plate at 37°C for an additional 24 h before treatment. After removal of medium from the 96-well plate, the cells were treated with 100 μl peptide-containing medium (or peptide-free medium) for 6 h in the presence or absence of forskolin (5 μM). […] The luciferase activity in each treatment group was expressed as the relative fold changes as compared with their respective control groups. The data were analyzed by non-linear regression followed by one-way ANOVA using GraphPad Prism 5 (GraphPad, San Diego, CA, USA). To validate the results, all experiments were repeated at least twice.

Assay [3] relates to zebrafish APLNR3a (zfAPLNR3a). Put plainly: pGL3-CRE-luciferase reporter assay, HEK293 cells expressing zebrafish APLNR3a. It counts as cell-based, zebrafish (Danio rerio). The note with it: HEK293 cells transiently expressing zfAPLNR3a; inhibition of forskolin (5 μM)-stimulated pGL3-CRE-luciferase activity; 6 h; mean ± S.E. of 3 independent experiments; N = EC50 cannot be evaluated. As to the method: as §1, §2

Assay [4] deals with tilapia APLNR3b (tiAPLNR3b). Nature of the assay: pGL3-CRE-luciferase reporter assay, HEK293 cells expressing tilapia APLNR3b. It counts as cell-based, Nile tilapia (Oreochromis niloticus). The note with it: HEK293 cells transiently expressing tiAPLNR3b; inhibition of forskolin (5 μM)-stimulated pGL3-CRE-luciferase activity; 6 h; mean ± S.E. of 3 independent experiments; N = EC50 cannot be evaluated. As to the method:
as §1, §2

Consider `CSCC[C@H](NC(=O)[C@@H]1CCCN1C(=O)CNC(=O)[C@H](CCCCN)NC(=O)[C@H](Cc1c[nH]cn1)NC(=O)[C@H](CO)NC(=O)[C@H](CC(C)C)NC(=O)[C@H](CCCNC(=N)N)NC(=O)[C@@H]1CCCN1C(=O)[C@H](CCCNC(=N)N)NC(=O)[C@@H]1CCCN1)C(=O)N1CCC[C@H]1C(=O)N[C@@H](Cc1ccccc1)C(=O)O` [cApelin-13], for which the figures for the half-maximal effective concentration (EC50) (in assay [1] (SEM); in assay [2] (SEM); at human APLNR (hAPLNR1)) were 12.7 ± 5.21 nM, 2.82 ± 1.18 nM and 0.55 ± 0.21 nM, respectively.

Consider `CSCC[C@H](NC(=O)[C@@H](N)CS)C(=O)N1CCC[C@H]1C(=O)N[C@@H](CC(C)C)C(=O)N[C@@H](Cc1cnc[nH]1)C(=O)N[C@@H](CO)C(=O)N[C@@H](CCCNC(=N)N)C(=O)N[C@H](C(=O)N1CCC[C@H]1C(=O)N[C@@H](Cc1ccccc1)C(=O)N1CCC[C@H]1C(=O)O)C(C)C` [cELA-11], for which the concentration for a half-maximal effect (EC50) in assay [1] and in assay [2] was > 100 nM throughout.

Turning to `CSCC[C@H](NC(=O)[C@@H]1CSSC[C@H](NC(=O)[C@H](CC(N)=O)NC(=O)[C@H](Cc2c[nH]cn2)NC(=O)[C@H](CCCNC(=N)N)NC(=O)[C@H](Cc2c[nH]cn2)NC(=O)[C@H](CC(C)C)NC(=O)[C@H](CCCCN)NC(=O)[C@H](CCCNC(=N)N)NC(=O)[C@H](CCCNC(=N)N)NC(=O)[C@H](CC(C)C)NC(=O)[C@H](C)NC(=O)[C@H](CC(C)C)NC(=O)[C@H](CC(N)=O)NC(=O)[C@H](C)NC(=O)[C@@H]2CCCN2C(=O)[C@H](CCCNC(=N)N)NC(=O)[C@@H](N)CCC(N)=O)C(=O)N[C@@H](CO)C(=O)N[C@@H](Cc2c[nH]cn2)C(=O)N[C@@H](CCCNC(=N)N)C(=O)N[C@@H](CCCNC(=N)N)C(=O)N1)C(=O)N1CCC[C@H]1C(=O)N[C@@H](CC(C)C)C(=O)N[C@@H](Cc1c[nH]cn1)C(=O)N[C@@H](CO)C(=O)N[C@@H](CCCNC(=N)N)C(=O)N[C@H](C(=O)N1CCC[C@H]1C(=O)N[C@@H](Cc1ccccc1)C(=O)N1CCC[C@H]1C(=O)O)C(C)C` [cELA-32a] (H-QRPANLALRRKLHRHNCSHRRCMPLHSRVPFP-OH; disulfide 17-22), the concentration for a half-maximal effect (EC50) (in general, the midpoint of the concentration-response curve) in assay [1] (SEM) stood at 2.55 ± 0.11 nM; in assay [2] (SEM) it was 1.81 ± 0.74 nM; at human APLNR (hAPLNR1), 0.26 ± 0.07 nM.

`CSCC[C@H](NC(=O)[C@H](CS)NC(=O)[C@H](CCCNC(=N)N)NC(=O)[C@H](CCCNC(=N)N)NC(=O)[C@H](Cc1c[nH]cn1)NC(=O)[C@H](CO)NC(=O)[C@H](CS)NC(=O)[C@H](CC(N)=O)NC(=O)[C@H](Cc1c[nH]cn1)NC(=O)[C@H](CCCNC(=N)N)NC(=O)[C@H](Cc1c[nH]cn1)NC(=O)[C@H](CC(C)C)NC(=O)[C@H](CCCCN)NC(=O)[C@H](CCCNC(=N)N)NC(=O)[C@H](CCCNC(=N)N)NC(=O)[C@H](CC(C)C)NC(=O)[C@H](C)NC(=O)[C@H](CC(C)C)NC(=O)[C@H](CC(N)=O)NC(=O)[C@H](C)NC(=O)[C@@H]1CCCN1C(=O)[C@H](CCCNC(=N)N)NC(=O)[C@@H](N)CCC(N)=O)C(=O)N1CCC[C@H]1C(=O)N[C@@H](CC(C)C)C(=O)N[C@@H](Cc1c[nH]cn1)C(=O)N[C@@H](CO)C(=O)N[C@@H](CCCNC(=N)N)C(=O)N[C@H](C(=O)N1CCC[C@H]1C(=O)N[C@@H](Cc1ccccc1)C(=O)N1CCC[C@H]1C(=O)O)C(C)C` [cELA-32b] (H-QRPANLALRRKLHRHNCSHRRCMPLHSRVPFP-OH): the concentration giving a half-maximal response (EC50) in assay [1] (SEM) worked out at 1.02 ± 0.23 nM; in assay [2] (SEM), 1.68 ± 0.58 nM; on human APLNR (hAPLNR1), 0.28 ± 0.05 nM.

Take `CC(C)C[C@H](NC(=O)[C@@H]1CCCN1C(=O)[C@H](CC(C)C)NC(=O)[C@H](CS)NC(=O)[C@H](CCCNC(=N)N)NC(=O)[C@H](CCCCN)NC(=O)[C@H](CCCCN)NC(=O)[C@@H]1CCCN1C(=O)[C@H](CS)NC(=O)[C@H](CC(N)=O)NC(=O)[C@H](Cc1c[nH]cn1)NC(=O)[C@H](CCCNC(=N)N)NC(=O)[C@H](CCCNC(=N)N)NC(=O)[C@H](Cc1ccc(O)cc1)NC(=O)[C@@H](N)CCCCN)C(=O)N[C@@H](Cc1c[nH]cn1)C(=O)N[C@@H](CO)C(=O)N[C@@H](CCCNC(=N)N)C(=O)N[C@H](C(=O)N1CCC[C@H]1C(=O)N[C@@H](Cc1ccccc1)C(=O)N1CCC[C@H]1C(=O)O)C(C)C` [zfELA-22] (H-KYRRHNCPKKRCLPLHSRVPFP-OH; N-terminus and C-terminus assumed): the concentration for a half-maximal effect (EC50) was > 100 nM in assay [3], 1.78 ± 1.17 nM in assay [1] (SEM), 1.43 ± 0.57 nM in assay [2] (SEM) and > 100 nM in assay [4].

Take “LVRPRGARRGNVRRPGGWRRLRRPRPRLSHKGPMPF [cApelin-36]”: the EC50 is 0.9 ± 0.33 nM in assay [1] (SEM), 2.96 ± 1.26 nM in assay [2] (SEM) and 0.16 ± 0.06 nM on human APLNR (hAPLNR1).
